The source of these data is US8969325B2, “TRPV1 antagonists” (AbbVie Inc., priority 2011, dated 2015).

The structures appear in SMILES notation.

By IC50 is commonly meant the midpoint of a concentration-inhibition curve.

Assay [1] addresses T1, human TRPV1 (Homo sapiens (Human), UniProt Q8NER1). The assay can be described thus: Capsaicin Activation Assay (intracellular Ca2+, FLIPR). The following applies: recombinant HEK293 cells expressing hTRPV1, 50 nM capsaicin. It counts as cell-based. Here is the method:
(Logan, Utah). Dulbecco's phosphate-buffered saline (D-PBS) (with 1 mg/mL glucose and 3.6 mg/l Na pyruvate, without phenol red), L-glutamine, hygromycin B, and Lipofectamine® were obtained from Life Technologies (Grand Island, N.Y.). G418 sulfate was obtained from Calbiochem-Novabiochem Corp. (San Diego, Calif.). […] (St. Louis, Mo.). […] The cDNA for human TRPV1 (hTRPV1) was isolated by reverse transcriptase-polymerase chain reaction (RT-PCR) from human small intestine poly A+ RNA supplied by Clontech (Palo Alto, Calif.) using primers designed surrounding the initiation and termination codons identical to the published sequences (Hayes et al. […] The resulting cDNA PCR products were subcloned into pCIneo mammalian expression vector (Promega) and fully sequenced using fluorescent dye-terminator reagents (Prism, PerkinElmer Applied Biosystems Division) and a PerkinElmer Applied Biosystems Model 373 DNA sequencer or Model 310 genetic analyzer. Expression plasmids encoding the hTRPV1 cDNA were transfected into HEK293 cells using Lipofectamine®. Forty-eight hours after transfection, the neomycin-resistant cells were selected with growth medium containing 800 μg/mL Geneticin (Life Technologies, formerly Gibco BRL). Surviving individual colonies were isolated and screened for TRPV1 activity. […] Compound stocks, 10 mM, were prepared in DMSO, and diluted serially across a 384-well plate using a Bravo BenchCel workstation (Agilent Technologies, Santa Clara, Calif.). […] On the day prior to the experiment, the recombinant HEK293 cells expressing human TRPV1 (hTRPV1) were removed from tissue culture flasks and plated in growth medium into black-walled clear-bottom 384-well Biocoat™ poly-D-lysine assay plates (BD Biosciences, Bedford, Mass.) using a Multidrop® dispenser (ThermoScientific, Waltham, Mass.). […] Molecular Devices, Sunnyvale, Calif.) was added to each well using the Multidrop® dispenser. […] Fluorescence readings were made at 1 to 5 second intervals over the course of the experimental run.

In assay [2] the target is T1, human TRPV1. The assay is described as follows: Acid Activation Assay (pH 5.0, intracellular Ca2+, FLIPR). It counts as cell-based. The following applies: percentage of the maximal pH 5.0-induced response remaining; recombinant HEK293 hTRPV1 cells; maximum concentration tested 37.5 μM. Here is the method: Dulbecco's modified Eagle's medium (DMEM) with 4.5 m g/mL D-glucose, fetal bovine serum, L-glutamine, and 2-morpholinoethanesulfonic acid (MES) were purchased from Sigma-Aldrich Co. (St. Louis, Mo.). Dulbecco's phosphate-buffered saline (DPBS) with Ca^2+, Mg^2+, and 1 mg/mL D-glucose (pH 7.4), Geneticin®, 0.25% trypsin-1 mM EDTA, and penicillin-streptomycin were purchased from Invitrogen Corp. (Carlsbad, Calif.). The FLIPR® Calcium 4 assay kit was purchased from Molecular Devices (Sunnyvale, Calif.).
The cDNA for human TRPV1 (hTRPV1) was isolated by reverse transcriptase-polymerase chain reaction (RT-PCR) from human small intestine poly A+ RNA supplied by Clontech (Palo Alto, Calif.) using primers designed surrounding the initiation and termination codons identical to the published sequences (Hayes et al. Pain 2000, 88, 205-215). The resulting cDNA PCR products were subcloned into pCIneo mammalian expression vector (Promega) and fully sequenced using fluorescent dye-terminator reagents (Prism, PerkinElmer Applied Biosystems Division) and a PerkinElmer Applied Biosystems Model 373 DNA sequencer or Model 310 genetic analyzer. Expression plasmids encoding the hTRPV1 cDNA were transfected into HEK293 cells using Lipofectamine®. Forty-eight hours after transfection, the neomycin-resistant cells were selected with growth medium containing 800 μg/mL Geneticin (Life Technologies, formerly Gibco BRL). Surviving individual colonies were isolated and screened for TRPV1 activity. Cells expressing recombinant TRPV1 were maintained at 37° C. in DMEM containing 4 mM L-glutamine, 300 μg/mL G418 (Calbiochem) and 10% fetal bovine serum under a humidified 5% CO2 atmosphere.
The functional activity of compounds at the TRPV1 receptor was determined by measurement of intracellular Ca^2+ levels ([Ca^2+]i) using the Fluorescence Imaging Plate Reader (FLIPR)TETRA®. All compounds were tested over a 12-point one-half-log concentration range with 37.5 μM being the maximum concentration tested. Compound stocks, 10 mM, were prepared in DMSO, and diluted serially across a 384-well plate using a Bravo BenchCel workstation (Agilent Technologies, Santa Clara, Calif.). On the day prior to the experiment, the recombinant HEK293 cells expressing human TRPV1 (hTRPV1) were removed from tissue culture flasks and plated in growth medium into black-walled clear-bottom 384-well Biocoat™ poly-D-lysine assay plates (BD Biosciences, Bedford, Mass.) using a Multidrop® dispenser (ThermoScientific, Waltham, Mass.). On the day of the experiment growth medium was removed, and the no-wash FLIPR® Calcium-4 dye (λEX=470-495 nm, λEM=515-575 nm) was added to each well using the Multidrop® dispenser. The plated cells were incubated for 90-120 min in the dark at 25° C. The test compounds dissolved in DMSO were then added to the plates using an Agilent Bravo workstation (Agilent Technologies Inc., Santa Clara, Calif.). Three minutes later, a pH 5.0 solution was added to each well. Reagents were delivered at a rate of 40 μL/sec, and the final assay volume was 80 μL. Acidic pH solutions were prepared by titration of DPBS/MES with 1 N HCl. The intensity of the fluorescence was captured and digitally transferred to an interfaced PC. The maximum peak measured for the concentration range tested was used to calculate the corresponding peak increase in fluorescence over baseline (relative fluorescence units) which was expressed as the percentage (max % remain) of the maximal pH 5.0-induced response.
Table 1 reports the percentage (max % remain) of the maximal pH 5.0-induced response measured for the compounds tested in the recombinant HEK293 cell assay. Most of the compounds tested inhibited calcium flux only partially following TRPV1 activation by the pH 5.0 solution.

T1 sequence (Q8NER1 whole entry): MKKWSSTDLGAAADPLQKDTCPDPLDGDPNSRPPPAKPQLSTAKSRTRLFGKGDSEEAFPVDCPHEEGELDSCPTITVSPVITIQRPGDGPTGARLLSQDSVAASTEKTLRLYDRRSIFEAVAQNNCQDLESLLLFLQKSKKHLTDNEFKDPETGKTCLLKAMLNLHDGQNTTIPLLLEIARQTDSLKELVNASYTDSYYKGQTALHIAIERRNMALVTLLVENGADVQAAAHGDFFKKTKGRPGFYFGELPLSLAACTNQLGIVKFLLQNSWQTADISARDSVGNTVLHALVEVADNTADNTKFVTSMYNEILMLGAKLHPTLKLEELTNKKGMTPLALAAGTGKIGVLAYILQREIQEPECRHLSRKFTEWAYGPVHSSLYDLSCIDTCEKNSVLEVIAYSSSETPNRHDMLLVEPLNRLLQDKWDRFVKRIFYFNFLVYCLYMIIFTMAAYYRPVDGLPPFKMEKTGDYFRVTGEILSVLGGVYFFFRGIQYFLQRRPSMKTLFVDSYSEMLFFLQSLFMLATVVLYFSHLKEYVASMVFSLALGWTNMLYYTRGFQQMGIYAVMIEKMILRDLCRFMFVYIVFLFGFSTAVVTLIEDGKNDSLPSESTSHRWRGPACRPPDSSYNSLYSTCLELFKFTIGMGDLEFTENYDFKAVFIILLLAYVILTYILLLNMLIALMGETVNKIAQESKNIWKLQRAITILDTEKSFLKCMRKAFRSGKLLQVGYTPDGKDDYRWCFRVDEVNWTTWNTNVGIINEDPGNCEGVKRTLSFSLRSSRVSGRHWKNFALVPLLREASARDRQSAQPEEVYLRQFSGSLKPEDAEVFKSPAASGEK

As for `CN1Cc2ccc(NC(=O)N[C@@H]3CC(C)(C)Oc4nc(C(F)(F)F)ccc43)cc2NC1=O` [Example 208, 1-[(4R)-2,2-dimethyl-7-(trifluoromethyl)-3,4-dihydro-2H-pyrano[2,3-b]pyridin-4-yl]-3-(3-methyl-2-oxo-1,2,3,4-tetrahydroquinazolin-7-yl)urea], the half-inhibitory concentration (IC50) in assay [1] was 1300 nM. The “human TRPV1 H^+ (max % remain)” value in assay [2] is 55%.

Turning to `O=C1CCc2ccc(NC(=O)N[C@@H]3CCOc4cc(OC(F)(F)F)ccc43)cc2N1` [Example 236, 1-(2-oxo-1,2,3,4-tetrahydroquinolin-7-yl)-3-[(4R)-7-(trifluoromethoxy)-3,4-dihydro-2H-chromen-4-yl]urea], the IC50 in assay [1] was 32 nM. For the same compound, the “human TRPV1 H^+ (max % remain)” value in assay [2] was 27%.

Turning to `CN1C(=O)CCc2ccc(NC(=O)N[C@@H]3CC(C)(C)Oc4c(F)cccc43)cc21` [Example 257, 1-[(4R)-8-fluoro-2,2-dimethyl-3,4-dihydro-2H-chromen-4-yl]-3-(1-methyl-2-oxo-1,2,3,4-tetrahydroquinolin-7-yl)urea], the IC50 in assay [1] came to 21 nM. Besides, the “human TRPV1 H^+ (max % remain)” value in assay [2] is given as 72%. For `Cn1c(=O)ccc2c(NC(=O)N[C@@H]3CC(C)(C)Oc4cc(Cl)ccc43)cccc21` [Example 23, 1-[(4R)-7-chloro-2,2-dimethyl-3,4-dihydro-2H-chromen-4-yl]-3-(1-methyl-2-oxo-1,2-dihydroquinolin-5-yl)urea] the same measures were 16 nM and 50%.

Regarding `C[C@@]1(C(F)F)C[C@@H](NC(=O)Nc2ccc3c(c2)NC(=O)N(CCO)C3)c2ccccc2O1` [Example 318, 1-[(2S,4R)-2-(difluoromethyl)-2-methyl-3,4-dihydro-2H-chromen-4-yl]-3-[3-(2-hydroxyethyl)-2-oxo-1,2,3,4-tetrahydroquinazolin-7-yl]urea], the IC50 in assay [1] is 590 nM. The “human TRPV1 H^+ (max % remain)” value in assay [2] is recorded as 14%. As for `CCC1(CC)C[C@@H](NC(=O)Nc2cccc3c2ccc(=O)n3C)c2cccc(F)c2O1` [Example 66, 1-[(4R)-2,2-diethyl-8-fluoro-3,4-dihydro-2H-chromen-4-yl]-3-(1-methyl-2-oxo-1,2-dihydroquinolin-5-yl)urea], the half-inhibitory concentration (IC50) in assay [1] amounted to 15 nM. In addition, in assay [2], the “human TRPV1 H^+ (max % remain)” value is on record as 42%. As for `CN1Cc2ccc(NC(=O)N[C@@H]3CC(CF)(CF)Oc4c(F)cc(F)cc43)cc2NC1=O` [Example 187, 1-[(4R)-6,8-difluoro-2,2-bis(fluoromethyl)-3,4-dihydro-2H-chromen-4-yl]-3-(3-methyl-2-oxo-1,2,3,4-tetrahydroquinazolin-7-yl)urea], the IC50 in assay [1] came out at 760 nM. For the same compound, in assay [2], the “human TRPV1 H^+ (max % remain)” value was found to be 50%. Take `CN1Cc2ccc(NC(=O)N[C@@H]3CC(CF)(CF)Oc4ccccc43)cc2NC1=O` [Example 197, 1-[(4R)-2,2-bis(fluoromethyl)-3,4-dihydro-2H-chromen-4-yl]-3-(3-methyl-2-oxo-1,2,3,4-tetrahydroquinazolin-7-yl)urea]: the IC50 in assay [1] was determined as 1100 nM. In addition, the “human TRPV1 H^+ (max % remain)” value in assay [2] is recorded as 57%. As for `CN1Cc2ccc(NC(=O)N[C@@H]3CC(C)(C)Oc4cc(C(F)(F)F)ccc43)cc2NC1=O` [Example 184, 1-[(4R)-2,2-dimethyl-7-(trifluoromethyl)-3,4-dihydro-2H-chromen-4-yl]-3-(3-methyl-2-oxo-1,2,3,4-tetrahydroquinazolin-7-yl)urea], in assay [1], the IC50 was 86 nM. The “human TRPV1 H^+ (max % remain)” value in assay [2] is listed as 44%. `O=C1COc2ccc(NC(=O)N[C@@H]3CC4(CCCC4)Oc4ccccc43)cc2N1` [Example 124, 1-[(4R)-3,4-dihydrospiro[chromene-2,1′-cyclopentan]-4-yl]-3-(3-oxo-3,4-dihydro-2H-1,4-benzoxazin-6-yl)urea]: the IC50 in assay [1] was 1600 nM. Also, the “human TRPV1 H^+ (max % remain)” value in assay [2] is reported as 97%. For the compound `CN1C(=O)CCc2ccc(NC(=O)N[C@@H]3CCOc4c3cccc4C(F)(F)F)cc21` [Example 284, 1-(1-methyl-2-oxo-1,2,3,4-tetrahydroquinolin-7-yl)-3-[(4R)-8-(trifluoromethyl)-3,4-dihydro-2H-chromen-4-yl]urea], the “human TRPV1 H^+ (max % remain)” value in assay [2] turned out to be 79%. Consider `CN1C(=O)NCc2c(NC(=O)N[C@@H]3CC(C)(C)Oc4ccccc43)cccc21` [Example 4, 1-[(4R)-2,2-dimethyl-3,4-dihydro-2H-chromen-4-yl]-3-(1-methyl-2-oxo-1,2,3,4-tetrahydroquinazolin-5-yl)urea], for which the “human TRPV1 H^+ (max % remain)” value in assay [2] was 35%. For the compound `CN1C(=O)NCc2c(NC(=O)N[C@@H]3CC(C)(C)Oc4cc(Cl)ccc43)cccc21` [Example 6, 1-[(4R)-7-chloro-2,2-dimethyl-3,4-dihydro-2H-chromen-4-yl]-3-(1-methyl-2-oxo-1,2,3,4-tetrahydroquinazolin-5-yl)urea], the “human TRPV1 H^+ (max % remain)” value in assay [2] is 30%.

Turning to `CN1C(=O)NCc2c(NC(=O)N[C@@H]3CC(CF)(CF)Oc4c3ccc(Cl)c4F)cccc21` [Example 3, 1-[(4R)-7-chloro-8-fluoro-2,2-bis(fluoromethyl)-3,4-dihydro-2H-chromen-4-yl]-3-(1-methyl-2-oxo-1,2,3,4-tetrahydroquinazolin-5-yl)urea], the “human TRPV1 H^+ (max % remain)” value in assay [2] is listed as 19%. Regarding `CN1C(=O)NCc2c(NC(=O)N[C@@H]3CC(C)(C)c4ccccc43)cccc21` [Example 158, 1-[(1R)-3,3-dimethyl-2,3-dihydro-1H-inden-1-yl]-3-(1-methyl-2-oxo-1,2,3,4-tetrahydroquinazolin-5-yl)urea], in assay [2], the “human TRPV1 H^+ (max % remain)” value is reported as 35%.

For the compound `CN1Cc2ccc(NC(=O)N[C@@H]3CC(C)(C)Oc4c(F)cccc43)cc2NC1=O` [Example 210, 1-[(4R)-8-fluoro-2,2-dimethyl-3,4-dihydro-2H-chromen-4-yl]-3-(3-methyl-2-oxo-1,2,3,4-tetrahydroquinazolin-7-yl)urea], in assay [2], the “human TRPV1 H^+ (max % remain)” value was 60%. Same read-out and setting: in the case of `CCC1(CC)C[C@@H](NC(=O)Nc2cccc3c2CNC(=O)N3C)c2ccc(F)cc2O1` [Example 143, 1-[(4R)-2,2-diethyl-7-fluoro-3,4-dihydro-2H-chromen-4-yl]-3-(1-methyl-2-oxo-1,2,3,4-tetrahydroquinazolin-5-yl)urea] it was 19%.
